Measurements: PMC7842274 (ACS catalysis, 2020)

What was measured:
[1] = molecular target: PmHS2 (Pasteurella multocida, UniProt Q5SGE1); experiment: apparent kinetics; format: biochemical; details: alpha1-4-GlcNAcT activity (acceptor; donor not stated in main text)
[2] = molecular target: Δ80PmHS2 (Pasteurella multocida, UniProt Q5SGE1); experiment: apparent kinetics; format: biochemical; details: alpha1-4-GlcNAcT activity (acceptor; donor not stated in main text)

GlcAβ2AA
Km [1]: 4 ± 0.6 mM | Km [2]: 5.3 ± 0.7 mM
